According to patent US20080275110A1, “Sesamin/Episesamin Compositions” (priority 2004, published 2008):

Columns and labels:
fatty acid synthases = conditions: rats, separately administered orally; cited from earlier work
[1] = tested on: Deoxycorticosterone Acetate-Salt (DOCA-Salt) Induced Hypertension Model Rats; experiment: Blood pressure lowering action in DOCA-salt induced hypertension model rats (tail-cuff SBP); format: in vivo, SD male rats; conditions: 100 mg/kg single oral; for changes in blood pressure for 24 hours after the single administration: Example 4, FIG. 3, n=5-7; for changes in blood pressure 8 hours after the administration: Example 4, FIG. 4
Experimental: SD male rats (6-wk old) (purchased from Japan SLC, Inc.) were subjected to surgery for removing the right kidney under anesthetization with Nembutal. After recuperation for a week, the rats were administered subcutaneously with DOCA-salt twice a week at a dose of 15 mg/kg, and allowed to drink 1% saline. The systolic blood pressure (SBP) of each animal was measured by a tail-cuff method with a non-invasive automatic blood pressure measuring apparatus (BP-98A, Softron, Tokyo). At 5 weeks after the start of treatment with DOCA-salt, blood pressure was measured and the animals in which adequate elevation of blood pressure was verified were used in the following experiment. Rats fasted for 8 hours were divided into a control group and three test groups. The control group was administered olive oil only. For the test groups, the high purity sesamin and episesamin obtained in Example 1 were incorporated at varying weight ratios of 10:0, 5:5 and 0:10 to prepare sesamin/episesamin mixtures, which were suspended in olive oil at a dose of 100 mg/kg. Single oral administration of olive oil or the suspension was effected via a feeding tube. Both before the administration and 2, 4, 6, 8, 10, 12 and 24 hours after the administration, SBP measurement was conducted. Diet was applied after the blood pressure measurement at 12 hours. Testing was conducted at 1-wk intervals and the same head was subjected to no more than three measurements.
Sesamin and episesamin were incorporated at varying weight ratios of 5:5, 3:7 and 1:9 to prepare sesamin/episesamin mixtures, which were dissolved in olive oil at a dose of 50 mg/kg. Single oral administration of the solution was effected via a feeding tube, and for blood pressure measurement was conducted.

[2] = tested on: β-oxidation enzymes in the liver; conditions: rats, separately administered orally; cited from earlier work
[3] = rat, in vivo, po; cited from earlier work
β-oxidation genes = experiment: Effects on the expression of β-oxidation genes, quantitative RT-PCR; format: in vivo, Wistar male rats; conditions: Example 6, FIGS. 6A/6B; 200 mg/kg peroral three times at 24-hr intervals, 4 hours after final administration
Experimental: Wistar male rats (6-wk old) were purchased from CLEA Japan, Inc. and habituated in the test environment for a week; the animals that were seen to grow normally were subjected to the test. The rats were divided into six groups each consisting of 5 heads. The control group was administered with olive oil only. For the test groups, the high purity sesamin and episesamin obtained in Example 1 were incorporated at varying weight ratios of 10:0, 5:5, 3:7, 1:9 and 0:10 to prepare sesamin/episesamin mixtures, which were suspended in olive oil at a dose of 200 mg/kg. The rats were administered perorally with olive oil or the suspension three times at 24-hr intervals. Four hours after the final administration, the kidney was removed from each rat under anesthetization with Nembutal; after extracting RNA, effects on the expression of 10 β-oxidation genes were investigated by quantitative RT-PCR using TaqMan chemistry (Heid C A, Stevens J, Livak K J, Williams P M, Real time quantitative PCR, Genome Res. 1996 6(10):986-94).
In contrast, each of the groups administered with the sesamin/episesamin mixture experienced more elevated gene expression than the group administered with episesamin alone. The effect of the mixing ratio was somewhat variable from one gene to another but no significant difference was found among the three groups administered with the sesamin/episesamin mixture.

[4] = Oral absorption of episesamin and its transfer into blood circulation (II), lowered sesamin ratios; set-up: species or system rats; conditions: male, SD (IGS), rat, in vivo, 10 mg/kg
Experimental: (§1) SD (IGS) male rats (6-wk old) were purchased from CHARLES RIVER JAPAN INC. and habituated in the test environment for a week; the animals that were seen to grow normally were subjected to the test. The rats fasted overnight were divided into six groups each consisting of 5 heads; the high purity sesamin and episesamin obtained in Example 1 were incorporated at varying weight ratios of 6:4, 5:5, 4:6, 3:7, 1:9 and 0:10 to prepare sesamin/episesamin mixtures, which were dissolved in olive oil at a dose of 10 mg/kg and administered perorally to the rats via a feeding tube. […] After adding an internal standard, solid-phase extraction was performed with Oassis HLB and the liquid extract was concentrated under vacuum, suspended in methanol, passed through a filter, and subjected to LC-MS/MS for quantification of sesamin and episesamin. The quantity of sesamin or episesamin was determined from the ratio between the peak area of sesamin or episesamin and that of UDESMIN (Funakoshi Co, Ltd.) used as the internal standard. […]
With a view to prescribing effective mixing ratios of sesamin, the action of further lowered ratios of sesamin was evaluated in accordance with the method of Example 2. […]

[5] = Oral absorption of episesamin and its transfer into blood circulation (I), LC-MS/MS of plasma; set-up: species or system SD (IGS) male rats; conditions: male, SD (IGS), rat, in vivo, 10 mg/kg
Experimental: as §1
The concentration of episesamin in blood peaked in about 6 hours after the administration, then decreased gradually until it became almost undetectable in 24 hours. From the blood concentration curve for 0-24 hours, the area under the curve (AUC) was determined as an index of absorbed quantity. […]

SMILES	activity for inhibiting fatty acid synthases, sesamin versus episesamin (fatty acid synthases)	changes in blood pressure for 24 hours after the single administration [1]	changes in blood pressure 8 hours after the administration [1]	gene expression and enzymatic activity of β-oxidation enzymes in the liver compared with sesamin [2]	transfer into organs relative to sesamin [3]	expression of β-oxidation genes (β-oxidation genes)	percent absorption of episesamin [4]	percent absorption of episesamin (AUC 0-24 hours divided by relative amount of episesamin administered) [5]
c1cc2c(cc1[C@H]1OC[C@H]3[C@@H]1CO[C@H]3c1ccc3c(c1)OCO3)OCO2 [episesamin]	no difference between sesamin and episesamin	No significant changes	−6 mmHg	markedly increased	at least twice as much as that of sesamin	many genes were expressed in increased amounts	59.7%	72.5%
c1cc2c(cc1[C@H]1OC[C@H]3[C@@H]1CO[C@@H]3c1ccc3c(c1)OCO3)OCO2 [sesamin]	no difference between sesamin and episesamin	No significant changes	−13 mmHg	–	–	hardly rose	–	–
